{"source": "PubChem BioAssay (NCI)", "test_in_all_cases": "NCI tumour cell line growth inhibition, 48 h", "key": {"[1]": {"test_system": "IGROV1 ovarian"}, "[2]": {"test_system": "RXF 393 renal"}, "[3]": {"test_system": "OVCAR-4 ovarian"}, "[4]": {"test_system": "COLO 205 colon"}, "[5]": {"test_system": "HOP-92 NSCLC"}, "[6]": {"test_system": "SK-MEL-5 melanoma"}, "[7]": {"test_system": "KM12 colon"}, "[8]": {"test_system": "OVCAR-3 ovarian"}, "[9]": {"test_system": "SN12C renal"}, "[10]": {"test_system": "HCT-116 colon"}, "[11]": {"test_system": "NCI/ADR-RES ovarian"}, "[12]": {"test_system": "UACC-257 melanoma"}, "[13]": {"test_system": "LOX IMVI melanoma"}, "[14]": {"test_system": "MCF7 breast"}, "[15]": {"test_system": "M14 melanoma"}, "[16]": {"test_system": "T-47D breast"}, "[17]": {"test_system": "786-0 renal"}, "[18]": {"test_system": "HT29 colon"}, "[19]": {"test_system": "SK-MEL-2 melanoma"}, "[20]": {"test_system": "MOLT-4 leukemia"}, "[21]": {"test_system": "SK-OV-3 ovarian"}, "[22]": {"test_system": "MALME-3M melanoma"}, "[23]": {"test_system": "NCI-H23 lung"}, "[24]": {"test_system": "UACC-62 melanoma"}, "[25]": {"test_system": "MDA-MB-435"}, "[26]": {"test_system": "OVCAR-8 ovarian"}, "[27]": {"test_system": "HCC-2998 colon"}, "[28]": {"test_system": "SNB-75 CNS"}}, "note": "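All cell lines were grown in 96-well plates and treated with compound for 48 hours. GI50 marks 50% less growth. TGI: concentration producing complete growth inhibition.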"}
{"molecule": "CC(C)c1nc(CN(C)C(=O)N[C@H](C(=O)N[C@@H](Cc2ccccc2)C[C@H](O)[C@H](Cc2ccccc2)NC(=O)OCc2cncs2)C(C)C)cs1", "values": [{"measurement": "GI50", "setting": "[1]", "value": 36.4, "unit": "µM"}, {"measurement": "TGI", "setting": "[1]", "value": "> 100", "unit": "µM"}, {"measurement": "GI50", "setting": "[2]", "value": 17.7, "unit": "µM"}, {"measurement": "TGI", "setting": "[2]", "value": 35.8, "unit": "µM"}, {"measurement": "GI50", "setting": "[3]", "value": 27.2, "unit": "µM"}, {"measurement": "TGI", "setting": "[3]", "value": "> 92.1", "unit": "µM"}, {"measurement": "GI50", "setting": "[4]", "value": 17.6, "unit": "µM"}, {"measurement": "TGI", "setting": "[4]", "value": 38.2, "unit": "µM"}, {"measurement": "GI50", "setting": "[5]", "value": 20.8, "unit": "µM"}, {"measurement": "TGI", "setting": "[5]", "value": 49.5, "unit": "µM"}, {"measurement": "GI50", "setting": "[6]", "value": 17.1, "unit": "µM"}, {"measurement": "TGI", "setting": "[6]", "value": 33.5, "unit": "µM"}, {"measurement": "GI50", "setting": "[7]", "value": 23.1, "unit": "µM"}, {"measurement": "TGI", "setting": "[7]", "value": 56.7, "unit": "µM"}, {"measurement": "GI50", "setting": "[8]", "value": 21.5, "unit": "µM"}, {"measurement": "TGI", "setting": "[8]", "value": "> 56.5", "unit": "µM"}, {"measurement": "GI50", "setting": "[9]", "value": 20.2, "unit": "µM"}, {"measurement": "TGI", "setting": "[9]", "value": 50.4, "unit": "µM"}, {"measurement": "GI50", "setting": "[10]", "value": 19.9, "unit": "µM"}, {"measurement": "TGI", "setting": "[10]", "value": 50.1, "unit": "µM"}, {"measurement": "GI50", "setting": "[11]", "value": 37.9, "unit": "µM"}, {"measurement": "TGI", "setting": "[11]", "value": "> 100", "unit": "µM"}, {"measurement": "GI50", "setting": "[12]", "value": 18.4, "unit": "µM"}, {"measurement": "TGI", "setting": "[12]", "value": 38, "unit": "µM"}, {"measurement": "GI50", "setting": "[13]", "value": 18.9, "unit": "µM"}, {"measurement": "TGI", "setting": "[13]", "value": 40.1, "unit": "µM"}, {"measurement": "GI50", "setting": "[14]", "value": 21, "unit": "µM"}, {"measurement": "TGI", "setting": "[14]", "value": 64.9, "unit": "µM"}, {"measurement": "GI50", "setting": "[15]", "value": 18, "unit": "µM"}, {"measurement": "TGI", "setting": "[15]", "value": 41.7, "unit": "µM"}, {"measurement": "GI50", "setting": "[16]", "value": 21.7, "unit": "µM"}, {"measurement": "TGI", "setting": "[16]", "value": 73, "unit": "µM"}, {"measurement": "GI50", "setting": "[17]", "value": 24.7, "unit": "µM"}, {"measurement": "TGI", "setting": "[17]", "value": 53.5, "unit": "µM"}, {"measurement": "GI50", "setting": "[18]", "value": 19.3, "unit": "µM"}, {"measurement": "TGI", "setting": "[18]", "value": 50.6, "unit": "µM"}, {"measurement": "GI50", "setting": "[19]", "value": 31.7, "unit": "µM"}, {"measurement": "TGI", "setting": "[19]", "value": "> 100", "unit": "µM"}, {"measurement": "GI50", "setting": "[20]", "value": 7.54, "unit": "µM"}, {"measurement": "TGI", "setting": "[20]", "value": 27.5, "unit": "µM"}, {"measurement": "GI50", "setting": "[21]", "value": 35.8, "unit": "µM"}, {"measurement": "TGI", "setting": "[21]", "value": "> 100", "unit": "µM"}, {"measurement": "GI50", "setting": "[22]", "value": 22.1, "unit": "µM"}, {"measurement": "TGI", "setting": "[22]", "value": "> 57", "unit": "µM"}, {"measurement": "GI50", "setting": "[23]", "value": 42.6, "unit": "µM"}, {"measurement": "TGI", "setting": "[23]", "value": "> 100", "unit": "µM"}, {"measurement": "GI50", "setting": "[24]", "value": 18.5, "unit": "µM"}, {"measurement": "TGI", "setting": "[24]", "value": 34.9, "unit": "µM"}, {"measurement": "GI50", "setting": "[25]", "value": 20.1, "unit": "µM"}, {"measurement": "TGI", "setting": "[25]", "value": 57.4, "unit": "µM"}, {"measurement": "GI50", "setting": "[26]", "value": 36.3, "unit": "µM"}, {"measurement": "TGI", "setting": "[26]", "value": "> 100", "unit": "µM"}, {"measurement": "GI50", "setting": "[27]", "value": 22.2, "unit": "µM"}, {"measurement": "TGI", "setting": "[27]", "value": 45.2, "unit": "µM"}, {"measurement": "GI50", "setting": "[28]", "value": 20.4, "unit": "µM"}]}
